The numbers were not newly measured in patent publication US20150045288A1, “COMPOSITION” (priority 2012, published 2015), which cites them from elsewhere.

Where two headings read alike, the source gives them in different places.

The conditions of this data set: 50% ethanol solution.

Regarding difficidin, the “t90 (time at which 90% of the inhibitory substance remains as tested by HPLC)” value is, setting by setting: (pH 3.5, room temperature) 2 h; (pH 11, room temperature) 17 h.
